The values below come from patent US20230184743A1, “SCREENING METHODS TO IDENTIFY SMALL MOLECULE COMPOUNDS THAT PROMOTE OR INHIBIT THE GROWTH OF CIRCULATING TUMOR CELLS, AND USES THEREOF” (University of Southern California, priority 2020, published 2023).

Test [1] deals with single CTCs from 4 patient-derived CTC lines (BRx07, BRx42, BRx50, and BRx68). Nature of the test: Validation of candidate compounds: single CTC proliferation over 24 days (AUC). It is filed as cell-based, human. As for the experimental part: (§1) Cell culture. CTC lines were previously derived from metastatic breast cancer patients. CTC lines were cultured in ultra-low attachment plates with RPMI 1640 medium, supplemented with EGF (20 ng/mL), bFGF (20 ng/mL), 1×B27 and 1× antibiotic/antimycotic, in 4% 02 and 5% CO2. Single CTCs were cultured in GravityTRAP™ ULA 96 well Plates (PerkinElmer). Wells on the edges of the plates were not used to avoid influence from evaporation. Media with fresh compounds were exchanged every 3 days by inserting pipet tips onto the platform of the wells to prevent accidentally aspirating suspended CTCs at the bottom. CTC numbers were counted manually under an inverted microscope every 6 days.
FACS sorting. Cells were pelleted and resuspended into single cell suspension in 1% BSA in PBS buffer with 7-AAD. Live single CTCs were sorted directly into 96-well GravityTRAP™ ULA Plates using a MoFlo cell sorter (Beckman Coulter). An inverted microscope was used to manually confirm that there was 1 CTC per well, 1 hour after sorting.
Compounds screening. Compounds were from the StemSelect library obtained from the Choi Family Therapeutic Screening Facility at the Eli and Edythe Broad CIRM Center for Regenerative Medicine and Stem Cell Research at USC. Each compound was given a code to ensure unbiased assessment and blinded to the investigators. Compound information is listed in Appendix, at Table 1 of US Provisional Application No. U.S. 62/990,445, incorporated herein by reference). In the first-round screening, compounds were used with […] concentration. Stocks of compounds (10 mM concentration in DMSO) were stored in aliquots at −80° C. All compounds were thawed and refrozen for a maximum of 2 times. In the second-round validation, fresh compounds were dissolved in DMSO (Millipore sigma), and aliquots were stored at −20° C. and used only once without refreezing. Only wells started from single cells on day 0 after sorting were used in the screening experiment. Data collection was done in batches.
(§2) Statistical analysis. […] AUC was calculated for each well in each batch, by plotting days in the x-axis and the corresponding number of cells in the y-axis, then drawing a line to connect the number of cells from the starting count day to the next count day until the end day, and finally calculating the area under this line as the sum of areas of trapezoids. […] Statistical tests were performed using R. For absolute number of cells quantification, total number of cells at end of experiment in each well in each batch was compared between treated cells and untreated control and significance was analyzed with Student t test. For other experiments, data were analyzed with Student t test, and represent the means±SEM of at least triplicate samples or averages ±SD of independent analyses, as indicated. […]

The test system of test [2] is breast cancer circulating tumor cell (CTC). Nature of the test: Breast cancer CTC growth screen. Particulars: added at 1 uM. It is filed as cell-based, human. As to the method:
Using the assay system described herein CTC were contact with a panel of small molecule drugs and the effect of the drugs on cell growth, migration, proliferation and gene expression was measured. […] This was initially found in a breast cancer circulating tumor cell (CTC) growth screen.

Test [3] deals with MCF7 cells, MDA-MB-231 cells, T47D cells. Nature of the test: Senescence assay: β-galactosidase activity. It is filed as cell-based. Particulars: various concentrations. An excerpt: (A) MCF7 cells. (B) MDA-MB-231 cells. (C) T47D cells.
Because an arrested state in which the cell remains viable, are not stimulated to divide by serum or passage in culture, a specific cell cycle profile is illicited that differs from most damage-induced arrest processes or contact inhibition. Characteristics of senescence cells include an enlarged cell size, expression of pH-dependent β-galactosidase activity, and an altered pattern of gene expression. To determine these characteristics, CTC cells were cultured with a compound of Formula II or cx-4945 (Silmitasertib) at various concentrations and β-galactosidase activity was measured.

In the next test the test system is BRx42. Nature of the test: Single CTC proliferation over 24 days (AUC), BRx42 line. It counts as cell-based, human. As to the method: as §1
(§3) FACS sorting. […]
as §2, with “test.” for “test. For other experiments, data were analyzed with Student t test, and represent the means±SEM of at least triplicate samples or averages ±SD of independent analyses, as indicated.”

Another test deals with BRx68-GFP+ cells. Nature of the test: RNA-seq analysis of pools of growing single cell clones. It counts as cell-based, human. Particulars: day 6; NAC 0.3 mM, P4D8 1 μM. As for the experimental part:
RNA-seq analysis. BRx68-GFP+ cells were sorted, with 1 cell per well, using the MoFlo cell sorter (Beckman Coulter). Single cells were cultured in the presence of CTC media containing either 1 μM of P1C2, P4D8, or P1G7, or 0.3 mM of NAC or a combination of 1 μM of P1C2 and 0.3 mM of NAC. Cells cultured in media containing DMSO served as a control. All cells were cultured for either 6 days or 13 days at 37° C., 5% CO2 and 4% O2, and media was changed every 3 days. For both day 6 and day 13 groups, only clones with more than 3 cells at day 6 were harvested and pooled to a maximum of 50 cells. […] Libraries were sequenced on an Illumina NextSeq500 to obtain 75 bp-long single-end reads.
RNA-sequencing reads were trimmed for Nextera and Illumina adapter sequences using Trim Galore under default parameters. Trimmed reads were then mapped to the human genome build GRCh37 from Ensembl (ftp:/][/ftp.ensembl.org/pub/grch37/current/fasta/homo_sapiens/dna/Homo_sapiens.GRCh37.dna_sm.primary_as sembly.fa.gz) using STAR under optimized parameters for single-end sequenced data. Aligned reads were then counted via feature-Counts and piped into DESeq2 for normalization to sequencing depth and downstream analysis. […]

For the next test, the system named is single BRx68 cells. Nature of the test: Single CTC proliferation over 24 days (AUC), BRx68 line. It counts as cell-based, human. As for the experimental part:
as §1, §3
as §2, with “test.” for “test. For other experiments, data were analyzed with Student t test, and represent the means±SEM of at least triplicate samples or averages ±SD of independent analyses, as indicated.”

Molecules are shown by their SMILES.

Regarding `COc1cc(Nc2ncc3ccn(-c4cccc(CCC#N)c4)c3n2)cc(OC)c1OC` [Formula II, 3-(3-(2-(3,4,5-Trimethoxy-phenylamino)-7H-pyrrolo[2,3-d]pyrimidin-7-yl)phenyl)propionitrile], in test [1] (4 different CTC lines over 24 days), the “proliferation of single CTCs (AUC measurement)” value is listed as “inhibition of the proliferation”. Also, in test [2], the CTC growth entry is on record as “stopped growing”. Further, in test [3], the “induced senescence (β-galactosidase activity) relative to CX-4945” value is 3-4 fold.
Regarding `N#C/C(=C\c1ccc(-c2cc(Cl)ccc2Cl)o1)C(=O)Nc1cccc2ncccc12` [P1G3, AGK2], the single cell growth entry with BRx42 was “promote single cell growth”.
As for `CCNCc1cc(C(C)(C)C)c(O)c(C(C)(C)C)c1` [P4D8, LY 231617], the “lipid metabolism pathway enrichment (IPA of differentially expressed genes) compared with control” value in the test with BRx68-GFP+ cells is recorded as “enriched”. In addition, the single cell growth entry in test [1] (other lines (than BRx68)) is on record as “inhibit growth”; in the test with single BRx68 cells, “promote single cell growth”.
